Legend:
Aurora Kinase B = Aurora Kinase B (Homo sapiens, UniProt Q96GD4); test: Biochemical enzyme assay for Aurora B activity (Caliper mobility shift); conditions: LC3000 or Desktop Profiler
Protocol: (§1) The Aurora assays described here were performed on two Caliper Life Sciences systems, the LC3000 and the Desktop Profiler. These provide data on enzyme activity via measurement of the relative amounts of phosphorylated or unphosphorylated fluorescently labelled substrate peptide at the end of an enzymatic reaction. These different states of peptide are resolved by applying a potential difference across the sample. The presence of a charged phosphate group on the product (as opposed to the substrate) causes a different peptide mobility between the two peptides. This is visualized by excitation of a fluorescent label on the substrate and product peptides and represented as peaks within the analysis software.
(§2) The Desktop Profiler utilizes the same prinicipal as the LC 3000 for calculating percentage conversion of a substrate to product. Caliper Life Sciences provided proprietary flash frozen pre-made 384 well plates containing selected kinases. Each column in the 384 well plate contained a particular selected kinase. A second plate, the ‘substrate plate’ contained a mix of fluorescently labeled peptide substrate and ATP. These were arranged in columns so that transfer for substrate plate to enzyme plate provided the correct enzyme with the correct substrate/ATP concentration.
(§3) Compounds were added to a thawed enzyme plate in the desired format, in single concentrations. Reactions were initiated by transfer of the substrate/ATP mix from the substrate plate. The enzyme plate was incubated for 90 mins at 25° C. The reaction was stopped by addition of 70 μl of Stop Buffer (100 mM HEPES pH 7.5, 0.015% Brij-35, 10 mM EDTA (Sigma, E7889)).
Plates were read in a manner identical to that of the LC3000, and the ratio between substrate and product peaks provided the activity of the enzyme in that well. This was best represented by a plate heat map which colors each well by percent inhibition as compared to positive and negative controls (no inhibitors and no ATP respectively).

Aurora Kinase A = molecular target: T1, Aurora Kinase A (Homo sapiens, UniProt O14965); test: Biochemical enzyme assay for Aurora A activity (Caliper LC3000 / Desktop Profiler mobility shift); conditions: GST-Aurora A, 15 μM ATP, 90 min at 25° C.; LC3000 or Desktop Profiler; read-out: Aurora Kinase A IC50
T1 construct: full length Aurora A (1-403 amino acids); purchased Carna Biosciences 05-101
T1 sequence (O14965 1-403): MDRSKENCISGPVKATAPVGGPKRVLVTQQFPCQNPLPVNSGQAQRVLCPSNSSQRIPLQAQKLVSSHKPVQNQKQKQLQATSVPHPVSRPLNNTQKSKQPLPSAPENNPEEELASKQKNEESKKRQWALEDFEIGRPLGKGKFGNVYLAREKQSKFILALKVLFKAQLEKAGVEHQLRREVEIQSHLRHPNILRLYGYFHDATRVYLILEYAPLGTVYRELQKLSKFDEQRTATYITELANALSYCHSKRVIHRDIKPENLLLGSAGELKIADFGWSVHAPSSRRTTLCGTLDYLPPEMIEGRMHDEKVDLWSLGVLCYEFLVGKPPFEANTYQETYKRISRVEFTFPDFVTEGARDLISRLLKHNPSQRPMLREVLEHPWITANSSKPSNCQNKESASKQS
Protocol: as §1
In order to measure inhibitor activity of Aurora A inhibitors in the Caliper Life Sciences LC3000, a TTP Mosquito liquid handling instrument was used to place 0.25 μl of an appropriate concentration of inhibitor in 100% DMSO (for a dose response curve calculation) into each well of a 384-well plate.
The reaction was incubated for 90 min at 25° C., and then stopped by the addition of 70 μl of Stop buffer (100 mM HEPES pH 7.5, 0.015% Brij-35, 10 mM EDTA (Sigma, E7889)).
The plate was read on a Caliper LC 3000 in an Off-Chip mobility shift assay format, using the following parameters for a 12-sipper chip: screening pressure −1.8 psi, upstream voltage −2700, downstream voltage −1000. These conditions cause unphosphorylated substrate and phosphorylated product peptide to resolve as separate peaks allowing direct measurement of percentage of conversion of substrate to product.
as §2, §3
Plates were read in a manner identical to that of the LC3000, and the ratio between substrate and product peaks provided the activity of the enzyme in that well.

[1] = tested on: tumor cells of various origins; conditions: cited from earlier work
[2] = tested on: cyclin-dependent kinases (CDKs) and Aurora kinases; conditions: cited from earlier work
[3] = tested on: leukemia, colon and pancreatic tumors; conditions: variety of in vivo xenograft models, well-tolerated doses; cited from earlier work
human tumor types = conditions: diverse range of human tumor types; cited from earlier work

Aurora Kinase B, sequence (Q96GD4 whole entry): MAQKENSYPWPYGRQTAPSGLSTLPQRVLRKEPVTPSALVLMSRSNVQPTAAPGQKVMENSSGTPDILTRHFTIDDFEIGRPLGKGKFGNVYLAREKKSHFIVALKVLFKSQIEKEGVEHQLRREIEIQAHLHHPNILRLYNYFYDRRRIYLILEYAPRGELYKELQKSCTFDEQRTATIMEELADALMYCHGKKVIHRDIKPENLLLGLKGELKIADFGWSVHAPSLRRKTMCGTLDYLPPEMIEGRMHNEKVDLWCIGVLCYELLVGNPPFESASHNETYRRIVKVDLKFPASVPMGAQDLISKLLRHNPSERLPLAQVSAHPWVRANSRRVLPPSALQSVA

| Structure (SMILES) | IC50 (Aurora Kinase B) | IC50 (Aurora Kinase A) | other results |
| --- | --- | --- | --- |
| Cc1cc(=O)[nH]c2nccc(Nc3ccc(NC(=O)c4ccccc4)cc3)c12 [Compound 94, N-[4-(5-Methyl-7-oxo-7,8-dihydro-[1,8]naphthyridin-4-ylamino)-phenyl]-benzamide] | 1 to 300 nM | 1 to 300 nM | – |
| Nc1nc(Nc2ccc(S(N)(=O)=O)cc2)nn1C(=O)c1c(F)cccc1F [JNJ-7706621] | – | – | proliferation of tumor cells [1]: selectively blocked proliferation; inhibition of CDKs and Aurora kinases [2]: potent inhibition |
| Cc1cc(Nc2cc(N3CCN(C)CC3)nc(Sc3ccc(NC(=O)C4CC4)cc3)n2)n[nH]1 [VX-680] | – | – | inhibition of tumor growth [3]: profound inhibition of tumor growth; effect on cell-cycle progression and apoptosis (human tumor types): blocks cell-cycle progression and induces apoptosis |

Second part, led by results:

| IC50 (Aurora Kinase B) | IC50 (Aurora Kinase A) | Structure (SMILES) | other results |
| --- | --- | --- | --- |
| 1 to 300 nM | 1 to 300 nM | Cc1cc(=O)[nH]c2nccc(Nc3ccc(NC(=O)c4ccc(F)cc4C(F)(F)F)cc3)c12 [Compound 95, 4-Fluoro-N-[4-(5-methyl-7-oxo-7,8-dihydro-[1,8]naphthyridin-4-ylamino)-phenyl]-2 trifluoromethyl-benzamide] | – |
| 1 to 300 nM | 1 to 300 nM | O=C(Nc1ccc(Nc2ccnc3[nH]c(=O)c(F)cc23)cc1)c1ccc(F)cc1C(F)(F)F [Compound 96, 4-Fluoro-N-[4-(6-fluoro-7-oxo-7,8-dihydro-[1,8]naphthyridin-4-ylamino)-phenyl]-2 trifluoromethyl-benzamide] | – |

Source: patent US20110269758A1, “NAPHTHYRIDINONES AS PROTEIN KINASE INHIBITORS” (MERCK PATENT GMBH, priority 2008, published 2011)
